The text below walks through data of ChEMBL document CHEMBL1201862, “PubChem BioAssay data set” (2004).

The structures appear in SMILES notation. Where a name gives a salt, the structure may show the parent alone.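 Cells were grown in 96-well plates and exposed to each compound for 48 hours at five concentrations; endpoints were interpolated linearly between bracketing concentrations, or set to the highest concentration if not reached. Here, GI50 denotes the concentration required for 50% inhibition of growth.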 Active and inactive are the calls of the source. Rule as the data show it: active = GI50 up to about 1.1 µM and inactive = higher.

Assay in all cases: DTP human tumour cell line panel, 48 h
The subject of experiment [1] is A498.
Experiment [2] relates to COLO 205.
For experiment [3], the system named is HCC 2998.
Experiment [4] concerns HOP-92.
Experiment [5] concerns IGROV-1.
In experiment [6] the test system is M14.
For experiment [7], the system named is MCF7.
Experiment [8] has as its system MDA-N.
In experiment [9] the test system is Malme-3M.
The subject of experiment [10] is OVCAR-3.
Experiment [11] has as its system OVCAR-8.
Experiment [12] has as its system PC-3.
Experiment [13] concerns RPMI-8226.
Experiment [14] relates to SF-268.
Experiment [15] has as its system SF-295.
The subject of experiment [16] is SK-MEL-28.
Experiment [17] relates to SK-MEL-2.
In experiment [18] the test system is MDA-MB-231.
Experiment [19] has as its system SR.

What is called GI50 is the concentration at which growth is held to half of that of the control. Take `COC(=O)CCC1(CCC(=O)OC)CCCCCCC(CCC(=O)OC)(CCC(=O)OC)C(=O)C1=O`: the GI50 in [1] was > 100 µM (inactive); in experiment [2], 54 µM (inactive); in [3], 27.9 µM (inactive); in experiment [4], 54.6 µM (inactive); in experiment [5], > 100 µM (inactive); in experiment [6], 74.1 µM (inactive). Besides, the GI50 in experiment [7] is > 100 µM (inactive); in [8], > 100 µM (inactive); in experiment [9] it was > 100 µM (inactive); in [10], 55.3 µM (inactive); in [11], > 100 µM (inactive); in experiment [12] it was 47.8 µM (inactive). In addition, the GI50 in experiment [13] is < 0.01 µM (active); in experiment [14] it was > 100 µM (inactive); in [15], > 100 µM (inactive); in experiment [16], > 100 µM (inactive); in [17], > 100 µM (inactive).
On to `CCCCCCc1cc2cc(-c3csc(-c4ccc(OC)cc4)n3)c(=O)oc2cc1O`, for which the GI50 in experiment [2] is 51.8 µM (inactive); in experiment [3], 15.3 µM (inactive); in experiment [4] it was 3.57 µM (inactive); in [5] it was 5.45 µM (inactive); in experiment [6], 12.2 µM (inactive); in experiment [7], 17.8 µM (inactive). The GI50 in [18] was 11 µM (inactive); in experiment [12], 18.9 µM (inactive); in [13], 33.8 µM (inactive); in experiment [14], 4.79 µM (inactive); in experiment [15], 13.9 µM (inactive); in experiment [16], 10.2 µM (inactive). Also, the GI50 in experiment [17] was 15.8 µM (inactive); in [19] it was 19.6 µM (inactive).
For the molecule `O=C(O)Cc1ccc(Nc2nc3ccccc3nc2C(=O)O)cc1`, the GI50 in [1], in experiment [2], in experiment [4], in experiment [5], in experiment [6] and in [7] was > 100 µM (inactive) in each case. For the same molecule, the GI50 in experiment [8], in experiment [9], in experiment [10], in experiment [11], in experiment [12] and in experiment [14] was > 100 µM (inactive) throughout. The GI50 in experiment [15], in [16], in experiment [17] and in experiment [19] was > 100 µM (inactive) in each case.
`CP(=O)(O)C(N)c1ccccc1` (stereo unspecified): the GI50 in experiment [2], in experiment [4], in experiment [5], in [6], in [7] and in experiment [8] was > 100 µM (inactive) throughout. The GI50 in [9], in experiment [10], in [11], in experiment [12], in experiment [13] and in [14] was > 100 µM (inactive) throughout. For the same molecule, the GI50 in experiment [15], in experiment [16] and in experiment [19] was > 100 µM (inactive) each time.
For `C/C(=C\CO)CC/C=C(\C)CNc1ccc([N+](=O)[O-])cc1`, the GI50 in experiment [2] is 36.6 µM (inactive); in experiment [5], 28.8 µM (inactive); in experiment [6], 62.1 µM (inactive); in experiment [7], 40.6 µM (inactive); in experiment [18], 26.2 µM (inactive); in experiment [9] it was 8.2 µM (inactive). Also, the GI50 in experiment [10] is 17.4 µM (inactive); in experiment [11] it was 30.8 µM (inactive); in experiment [12] it was 18 µM (inactive); in experiment [14] it was 63.5 µM (inactive); in [15], 32.5 µM (inactive); in experiment [16], 28.4 µM (inactive). Also, the GI50 in experiment [17] is 20.4 µM (inactive); in experiment [19], 4.54 µM (inactive).
With `Cc1c2cc[n+](C)cc2c(C)c2c1[nH]c1ccc(OC(C)(C)C)cc12`, the GI50 in [1], in [2], in [3], in experiment [4], in experiment [5] and in [6] was > 100 µM (inactive) in each case. In addition, the GI50 in experiment [9], in experiment [11], in experiment [13], in experiment [14], in [15] and in experiment [16] was > 100 µM (inactive) in each case. In addition, the GI50 in experiment [17] and in experiment [19] was > 100 µM (inactive) throughout.
Turning to `CC1=C(C(=O)CC(=O)C(=O)Nc2cccc(Cl)c2C)Sc2ccccc2N1`, the GI50 in experiment [3], in experiment [4], in experiment [5], in [6], in experiment [9] and in experiment [10] was > 100 µM (inactive) each time. Also, the GI50 in experiment [11], in experiment [13], in [14], in [15], in [16] and in [17] was > 100 µM (inactive) throughout. For the same molecule, the GI50 in [19] is > 100 µM (inactive).
On to `CC(CN1c2ccccc2Sc2ccccc21)N(C)C` (stereo unspecified) [PROMETHAZINE HYDROCHLORIDE], for which the GI50 in [1] is 19.6 µM (inactive); in [2], 14.1 µM (inactive); in [3], 20.1 µM (inactive); in experiment [4], 17.1 µM (inactive); in experiment [5], 20.1 µM (inactive); in [6], 17.3 µM (inactive). In addition, the GI50 was 25.8 µM (inactive) in [7]; 17.9 µM (inactive) in [18]; 18.9 µM (inactive) in [9]; 16.5 µM (inactive) in experiment [10]; 16.2 µM (inactive) in [11]; 15.8 µM (inactive) in [12]. The GI50 in experiment [14] was 17.5 µM (inactive); in experiment [15], 15.4 µM (inactive); in [16] it was 17.8 µM (inactive); in experiment [17], 18 µM (inactive); in experiment [19] it was 21.8 µM (inactive).
Turning to `O=C(CCCN1CCC(O)(c2ccc(Cl)cc2)CC1)c1ccc(F)cc1` [HALOPERIDOL], the GI50 in experiment [2] was 18.6 µM (inactive); in experiment [4], 48.2 µM (inactive); in experiment [5] it was 57.3 µM (inactive); in experiment [6], 18.5 µM (inactive); in experiment [7] it was 37.9 µM (inactive); in [18], 22 µM (inactive). Also, the GI50 was 19.6 µM (inactive) in experiment [9]; 18.3 µM (inactive) in [10]; 32.7 µM (inactive) in experiment [11]; 70 µM (inactive) in [12]; 25.1 µM (inactive) in [13]; 48.2 µM (inactive) in experiment [14]. The GI50 is 15.6 µM (inactive) in experiment [15], 18 µM (inactive) in experiment [16], 20.7 µM (inactive) in experiment [17] and 48.1 µM (inactive) in [19].
In the case of `COc1cc(C/C=C/c2ccccc2)c(OC)cc1O` [VIOLASTYRENE], the GI50 in experiment [1] is 80.4 µM (inactive); in [2], 22.3 µM (inactive); in experiment [3], 16.7 µM (inactive); in experiment [4] it was 15.4 µM (inactive); in experiment [5] it was 18.3 µM (inactive); in experiment [6] it was 19.2 µM (inactive). Further, the GI50 was 15.1 µM (inactive) in experiment [18]; 17.9 µM (inactive) in experiment [8]; 22.6 µM (inactive) in experiment [9]; 20.1 µM (inactive) in [10]; 12.6 µM (inactive) in [11]; 21.6 µM (inactive) in [12]. Moreover, the GI50 in experiment [13] is 15.6 µM (inactive); in experiment [14] it was 25.9 µM (inactive); in [16], 18.7 µM (inactive); in experiment [17] it was 23.2 µM (inactive).
In the case of `CON(C)C(=O)C(Cc1ccccc1)NC(=O)OC(C)(C)C` (stereo unspecified), the GI50 in experiment [1], in experiment [2], in [3], in experiment [4], in experiment [5] and in experiment [6] was > 100 µM (inactive) throughout. Besides, the GI50 in experiment [7], in experiment [8], in [9], in experiment [10], in experiment [11] and in experiment [12] was > 100 µM (inactive) in each case. The GI50 in experiment [13], in experiment [14], in [15], in experiment [16] and in experiment [19] was > 100 µM (inactive) each time.
In the case of `OC1(c2ccccc2)CCCCCCCCC(O)(c2ccccc2)CCCCCCCC1` (stereo unspecified), the GI50 in [1], in experiment [2], in experiment [3], in [4], in experiment [5] and in [6] was > 100 µM (inactive) throughout. Besides, the GI50 in [7], in experiment [8], in experiment [9], in experiment [10], in experiment [11] and in experiment [12] was > 100 µM (inactive) in each case. Further, the GI50 in [14], in experiment [15], in experiment [16], in [17] and in experiment [19] was > 100 µM (inactive) each time.
